Blank lines part the entries; values can stand above or below the compound they belong to.
Key:
[1] = biological target: Mitogen-activated protein kinase 3 (Homo sapiens) (UniProt P27361); test: Inhibition of Erk1 (unknown origin) at 0.078 uM relative to control
[2] = biological target: Glycogen synthase kinase-3 beta (Homo sapiens) (UniProt P49841); test: Inhibition of GSK3b (unknown origin) at 0.078 uM relative to control
[3] = biological target: T1, Serine/threonine-protein kinase D2 (Homo sapiens) (UniProt Q9BZL6); test: Inhibition of PKD2 (unknown origin) at 0.078 uM relative to control
T1 sequence (whole entry): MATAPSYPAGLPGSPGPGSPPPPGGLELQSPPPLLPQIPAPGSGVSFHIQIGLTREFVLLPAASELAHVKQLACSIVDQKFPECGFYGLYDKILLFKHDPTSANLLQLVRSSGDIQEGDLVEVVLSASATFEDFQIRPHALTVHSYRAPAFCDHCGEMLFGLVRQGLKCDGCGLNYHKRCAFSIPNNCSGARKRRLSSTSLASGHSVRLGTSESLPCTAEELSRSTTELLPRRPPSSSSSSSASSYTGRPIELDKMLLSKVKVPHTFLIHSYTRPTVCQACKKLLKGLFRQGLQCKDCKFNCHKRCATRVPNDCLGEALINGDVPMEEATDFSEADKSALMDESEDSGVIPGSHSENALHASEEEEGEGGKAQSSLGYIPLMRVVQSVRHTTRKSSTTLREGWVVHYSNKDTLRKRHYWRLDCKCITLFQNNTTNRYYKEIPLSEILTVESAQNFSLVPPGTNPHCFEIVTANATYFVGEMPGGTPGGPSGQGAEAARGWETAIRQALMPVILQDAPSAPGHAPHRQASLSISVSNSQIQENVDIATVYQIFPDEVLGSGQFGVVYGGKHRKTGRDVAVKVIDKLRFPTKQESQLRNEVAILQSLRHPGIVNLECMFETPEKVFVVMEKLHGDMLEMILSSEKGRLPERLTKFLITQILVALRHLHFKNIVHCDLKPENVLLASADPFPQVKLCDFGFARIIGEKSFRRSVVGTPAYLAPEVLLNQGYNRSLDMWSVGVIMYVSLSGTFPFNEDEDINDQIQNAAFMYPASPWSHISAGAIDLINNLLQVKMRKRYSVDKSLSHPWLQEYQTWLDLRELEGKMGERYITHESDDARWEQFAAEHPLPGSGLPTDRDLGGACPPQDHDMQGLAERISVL

[4] = biological target: Protein kinase C alpha (Homo sapiens) (UniProt P17252); test: Inhibition of PKC-alpha (unknown origin) at 0.45 uM relative to control
[5] = biological target: T2, Serine/threonine-protein kinase Sgk1 (Homo sapiens) (UniProt O00141); test: Inhibition of SGK1 (unknown origin) at 0.45 uM relative to control
T2 sequence (whole entry): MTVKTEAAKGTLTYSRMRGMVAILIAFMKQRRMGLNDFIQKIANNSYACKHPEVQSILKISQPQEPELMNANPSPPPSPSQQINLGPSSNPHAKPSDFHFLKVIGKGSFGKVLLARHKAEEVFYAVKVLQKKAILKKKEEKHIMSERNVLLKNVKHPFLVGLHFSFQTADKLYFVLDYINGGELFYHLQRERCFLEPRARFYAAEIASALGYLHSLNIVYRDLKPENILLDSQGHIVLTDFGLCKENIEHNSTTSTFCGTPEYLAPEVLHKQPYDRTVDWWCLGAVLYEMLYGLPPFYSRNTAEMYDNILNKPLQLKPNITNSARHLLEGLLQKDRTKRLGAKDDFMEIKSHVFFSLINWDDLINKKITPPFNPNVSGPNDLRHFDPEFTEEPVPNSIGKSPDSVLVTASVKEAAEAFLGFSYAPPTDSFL

[6] = biological target: Epidermal growth factor receptor (Homo sapiens) (UniProt P00533); test: Inhibition of EGFR (unknown origin) at 0.45 uM relative to control
[7] = biological target: Tyrosine-protein kinase ABL2 (Homo sapiens) (UniProt P42684); test: Inhibition of Arg (unknown origin) at 0.45 uM relative to control
[8] = biological target: Interleukin-1 receptor-associated kinase 1 (Homo sapiens) (UniProt P51617); test: Inhibition of IRAK1 (unknown origin) at 0.45 uM relative to control
[9] = biological target: Phosphorylase b kinase gamma catalytic chain, liver/testis isoform (Homo sapiens) (UniProt P15735); test: Inhibition of PhKg2 (unknown origin) at 0.45 uM relative to control
[10] = biological target: Serine/threonine-protein kinase 24 (Homo sapiens) (UniProt Q9Y6E0); test: Inhibition of MST3 (unknown origin) at 0.45 uM relative to control
[11] = biological target: Death-associated protein kinase 3 (Homo sapiens) (UniProt O43293); test: Inhibition of ZIPK (unknown origin) at 0.45 uM relative to control
[12] = biological target: T1, Serine/threonine-protein kinase D2 (Homo sapiens); test: Inhibition of PKD2 (unknown origin) at 0.45 uM relative to control
[13] = biological target: Glycogen synthase kinase-3 alpha (Homo sapiens) (UniProt P49840); test: Inhibition of GSK3-alpha (unknown origin) at 0.45 uM relative to control
[14] = tested on: Mast/stem cell growth factor receptor Kit (Homo sapiens), P10721 [T670I]; test: Inhibition of KIT T670I mutant (unknown origin) at 0.45 uM relative to control
[15] = biological target: Ephrin type-A receptor 1 (Homo sapiens) (UniProt P21709); test: Inhibition of EPHA1 (unknown origin) at 0.45 uM relative to control
[16] = biological target: Platelet-derived growth factor receptor beta (Homo sapiens) (UniProt P09619); test: Inhibition of PDGFR beta (unknown origin) at 0.45 uM relative to control
[17] = tested on: Epidermal growth factor receptor (Homo sapiens), P00533 [L858R,T790M]; test: Inhibition of EGFR T790M/L858R double mutant (unknown origin) at 0.45 uM relative to control
[18] = biological target: Tyrosine-protein kinase Fgr (Homo sapiens) (UniProt P09769); test: Inhibition of FGR (unknown origin) at 0.45 uM relative to control
[19] = biological target: Calcium/calmodulin-dependent protein kinase type II subunit alpha (Homo sapiens) (UniProt Q9UQM7); test: Inhibition of CaMK2a (unknown origin) at 0.49 uM relative to control
[20] = tested on: Platelet-derived growth factor receptor alpha (Homo sapiens), P16234 [V561D]; test: Inhibition of PDGFRA V561D mutant (unknown origin) at 0.49 uM relative to control
[21] = biological target: Ephrin type-B receptor 2 (Homo sapiens) (UniProt P29323); test: Inhibition of EPHB2 (unknown origin) at 0.49 uM relative to control
[22] = biological target: Serine/threonine-protein kinase D1 (Homo sapiens) (UniProt Q15139); test: Inhibition of PKD1 (unknown origin) at 0.49 uM relative to control
[23] = biological target: MAP kinase-interacting serine/threonine-protein kinase 2 (Homo sapiens) (UniProt Q9HBH9); test: Inhibition of MNK2 (unknown origin) at 0.49 uM relative to control

inhibition [1]: 8%
inhibition [2]: 10%
inhibition [3]: -0.7%
SMILES: COC(=O)Nc1noc2cc(-c3c(-c4ccccn4)n[nH]c3C)ccc12

inhibition [4]: 13.7%
inhibition [5]: 2.3%
inhibition [6]: -6%
inhibition [7]: 66.3%
inhibition [8]: 4.3%
inhibition [9]: 1.7%
inhibition [10]: 44.7%
inhibition [12]: 6.7%
inhibition [13]: -1%
inhibition [14]: -10%
inhibition [15]: 21%
inhibition [16]: 78.3%
inhibition [17]: 1.3%
inhibition [18]: 13%
SMILES: Cc1n[nH]c(C)c1-c1ccc2c(NC(=O)c3ccc(N4CCN(C)CC4)cc3)n[nH]c2c1
inhibition [11]: 0.3%

inhibition [19]: 1.3%
inhibition [20]: -0.7%
inhibition [21]: 5.3%
inhibition [22]: 1.7%
inhibition [23]: -1.7%
SMILES: Cc1[nH]nc(C2CC2)c1-c1ccc2c(NC(=O)C3CC3)noc2c1

Reference: ChEMBL document CHEMBL4052759, “Discovery of DS79182026: A potent orally active hepcidin production inhibitor” (Bioorg Med Chem Lett, 2017)
